# Measurements reported in US10342796B2, “Acrylanilide derivative, preparation method, and applications thereof in pharmacy” (Ancureall Pharmaceutical (Shanghai) Co., Ltd., priority 2015, dated 2019).
# Read-outs that look alike come from different tables or passages of the source.
# System: SW48 (EGFR G719S positive)
# Experiment: Growth inhibition GI50 in vitro (CCK8/MTT, 72 h)
# Type: cell-based
# Details: Homo sapiens
# Description: PC-9ER is an acquired Erlotinib resistance cell line of PC-9 cells developed by the investor. […] The four cell lines above were cultured with 1×RPMI1640 complete medium (supplement with 10% FBS). Human colon cancer cell line SW48 (EGFR G719S positive, ATCC). was cultured with L15 complete medium (10% FB S).
# The suspension cells were collected by centrifugation. The supernatant was discard and the cell pellet was resuspended and counted. Different cell concentrations (5˜10×10^4 cells/mL) were prepared according to the growth cycle of each cell line and then seeded on a 96-well plate (Corning), 100 μL/well. The cells were incubated over night at 37° C., 5% CO2. The compounds were added to the cells on the second day with 2 wells in parallel. The final concentration of organic solvent shall not exceed 1%. The cells were continually incubated for 72 h, and then subjected to MTT assay.
# The present compounds and the reference compounds were dissolved with DMSO (Sigma), respectively. […] The storage concentration of compounds was 10 mM and kept at −20° C. They were diluted by 2 times or 10 times with serial dilution before using.
# Dojindo CCK8 reagent kit was used as MTT assay. […] FC meter was used as microplate reader.
# Adherent cell culture medium was discard and immediately replaced with fresh prepared medium which contains 10% CCK8 reagent (100 μL/well). For the suspension cells, CCK8 was directly added to 10% of the final concentration. The cells were continually incubated for 1˜4 h. When the color of control wells turned to dark yellow, the absorption value was measured at OD450 nm. The cell growth rate was calculated according to the following formula: cell growth rate (%)=100*(T−T0)/(C−T0), T=optical density of drug treatment cell well—optical density of blank control well; T0=optical density of cell well before drug treatment—optical density of blank control well; C=optical density of cell well of solvent control group—optical density of blank control well. […] The experiment was independently repeated 1˜3 times, and subject to biological statistical analysis.
# Each compound started at 1000 nM as an initial concentration and was diluted by […] with serial dilution to 0.03 nM.
"GI50 (SW48, Table 15, 1000 nM to 0.03 nM serial dilution, read-out: GI50 SW48 (EGFR G719S)) [nM]",SMILES,"GI50 (SW48, read-out: GI50 SW48 (EGFR G719S)) [nM]"
–,"C=CC(=O)Nc1cc(Nc2nccc(-c3cn(C)c4ccccc34)n2)c(OC)cc1N(C)CCN(C)C [AZD9291, reference compound]",156
4.23,"C=CC(=O)Nc1cc(Nc2cc(Nc3cc(F)c(OC)c(Cl)c3)ncn2)c(OC)cc1N(C)CCN(C)C [Compound 236, N-(5-(6-(3-chloro-5-fluoro-4-methoxyphenylamino)-pyrimidin-4-yl-amino)-2-((2-dimethylamino-ethyl)-methyl-amino)-4-methoxyl-phenyl)-acrylamide]",–
